Reference: PMC7083565, “In vitro metabolism, reaction phenotyping, enzyme kinetics, CYP inhibition and induction potential of ataluren” (Pharmacology Research & Perspectives, 2020)

Tests used:
Type in all cases: in vitro ADME
[1] = Glucuronidation in pooled human lung microsomes; details: lung microsomes 1 mg protein/mL, 10 μmol/L
Method: Ataluren at 10 μmol/L, was incubated (n = 1) with pooled human intestinal, lung, and kidney microsomes (1 mg protein/mL, preactivated with alamethicin) to evaluate if ataluren‐O‐1β‐acyl glucuronide will be formed in these extrahepatic tissues. Incubation mixtures and procedures were essentially the same as the above. The supernatant fractions were analyzed by LC‐MS/MS to quantify the formation of ataluren‐O‐1β‐acyl glucuronide and the loss of ataluren. Detailed LC‐MS/MS conditions are summarized in LC‐MS/MS Analysis section. […] The ataluren acyl glucuronide formation rate after 60 minutes incubation was calculated using the amount of metabolite formed (pmol) divided by the protein amount in the incubation sample ([…]) and the incubation time (60 minutes).
Quantification of ataluren loss and ataluren‐O‐1β‐acyl glucuronide formation was carried out with an LC‐MS/MS system, which consisted of two Shimadzu LC‐10ADvp pumps, a SPD10‐AVP UV/Vis detector, a Shimadzu SILHTA autosampler, a Shimadzu DGU‐14A degasser, and a Sciex API 4000 QTRAP mass spectrometer equipped with a Turbo Ionspray ionization source that operated in positive ionization mode. […] Ion transitions monitored were at m/z 285 → m/z 123 for ataluren, m/z 461 → m/z 285 for ataluren acyl glucuronide, and m/z 289 → m/z 127 for ataluren‐D4 (internal standard), respectively.

[2] = target: T1, CYP1A2 (Homo sapiens, UniProt P05177); test: CYP inhibition in pooled human liver microsomes: CYP1A2; details: CYP1A2, HLM, estimated, concentrations up to 400 μmol/L
T1 construct: tissue XenoTech LLC, Celsis-In Vitro Technologies, or Tissue Transformation Technologies; host or cells: pooled human liver microsomes
T1 sequence (P05177 1-516): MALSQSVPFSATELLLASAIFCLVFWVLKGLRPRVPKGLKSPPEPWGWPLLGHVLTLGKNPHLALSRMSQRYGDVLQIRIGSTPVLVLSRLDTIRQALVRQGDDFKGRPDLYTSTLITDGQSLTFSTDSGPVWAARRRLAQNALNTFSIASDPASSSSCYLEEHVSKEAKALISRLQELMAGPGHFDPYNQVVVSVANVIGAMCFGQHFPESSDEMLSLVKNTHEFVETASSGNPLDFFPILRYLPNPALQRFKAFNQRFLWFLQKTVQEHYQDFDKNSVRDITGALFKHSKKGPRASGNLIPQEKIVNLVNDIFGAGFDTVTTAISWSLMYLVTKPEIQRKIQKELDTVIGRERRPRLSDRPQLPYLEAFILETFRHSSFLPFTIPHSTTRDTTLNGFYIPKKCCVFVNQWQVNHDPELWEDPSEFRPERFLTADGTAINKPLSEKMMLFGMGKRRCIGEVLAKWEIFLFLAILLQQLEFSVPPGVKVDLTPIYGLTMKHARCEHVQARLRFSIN
Method: (§1) The final concentration of each probe substrate was near the experimentally determined Km value for the indicated enzyme. Ataluren or prototypical CYP inhibitors (positive controls) was incubated (n = 3) with probe substrates and HLM in 100 mmol/L phosphate buffer (pH 7.4) in a total volume of approximately 0.25 mL, and the reactions were initiated by the addition of 1 mmol/L NADPH at 37°C. The reactions were carried out using previously established conditions to ensure linearity with respect to protein concentration and incubation time (Table S1). Incubations were stopped with the addition of ice‐cold acetonitrile. Metabolite formation in incubations with test compound and control inhibitors was assessed with LC‐MS/MS methods for each of the reaction products as described in Table S2. […] After 7 minutes incubation at 37°C, the reaction was stopped by the addition of ice‐cold acetonitrile, followed by membrane plate filtration. The filtrates were used for LC‐MS/MS analysis. […] IC50 values were determined by nonlinear regression with GraphPad Prism 5 using the following four‐parameter sigmoidal‐logistic IC50 equation: Fit=background+range-background/[1+I/IC50^slope]
(§2) Where, I is the inhibitor concentration, and background was set to 0 and range to 100, as percent of control values are utilized. K i was determined by nonlinear regression with GraphPad Prism 5 using best fit model.

[3] = target: T2, CYP2D6 (Homo sapiens, UniProt P10635); test: CYP inhibition in pooled human liver microsomes: CYP2D6; details: CYP2D6, HLM, estimated, concentrations up to 400 μmol/L
T2 construct: tissue XenoTech LLC, Celsis-In Vitro Technologies, or Tissue Transformation Technologies; host or cells: pooled human liver microsomes
Method: as §1, §2

T2 sequence (P10635 whole entry): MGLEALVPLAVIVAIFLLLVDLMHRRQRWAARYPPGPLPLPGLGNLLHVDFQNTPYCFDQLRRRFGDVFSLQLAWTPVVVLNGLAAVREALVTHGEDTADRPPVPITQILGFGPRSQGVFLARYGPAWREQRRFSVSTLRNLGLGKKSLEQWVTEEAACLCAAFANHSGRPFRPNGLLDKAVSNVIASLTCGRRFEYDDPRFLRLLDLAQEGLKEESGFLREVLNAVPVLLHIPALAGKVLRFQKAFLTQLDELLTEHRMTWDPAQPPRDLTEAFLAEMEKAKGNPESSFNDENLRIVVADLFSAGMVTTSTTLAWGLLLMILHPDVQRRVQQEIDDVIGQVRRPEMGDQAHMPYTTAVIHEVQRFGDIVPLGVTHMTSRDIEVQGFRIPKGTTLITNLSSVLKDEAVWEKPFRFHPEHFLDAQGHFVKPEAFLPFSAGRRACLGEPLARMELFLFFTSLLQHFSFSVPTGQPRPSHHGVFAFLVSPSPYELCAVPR

For `O=C(O)c1cccc(-c2noc(-c3ccccc3F)n2)c1` [ataluren, Ataluren], which “Glucuronidation of ataluren observed” value [1] is on record?
Its value is “not in lung microsomes”.

What about the IC50 [2] of the same compound?
Its IC50 is > 400 µM.

What about the IC50 [3] of the same compound?
Its IC50 is > 400 µM.
